Patent publication US10695337B2, “Piperidin-4-yl azetidine derivatives as JAK1 inhibitors” (Incyte Corporation, priority 2010, dated 2020)

Biological target: human JAK1 (a.a. 837-1142)
Assay: In vitro JAK kinase assay (HTRF, phosphorylation of a biotinylated peptide), JAK1
Type: biochemical
Conditions: measured at 1 mM ATP; JAK2 IC50 / JAK1 IC50
Method in brief: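 Phosphorylation of a biotinylated peptide by purified His-tagged JAK catalytic domains (insect-cell baculovirus expression) ran 1 hr at room temperature. After stopping with EDTA, Eu-Py20 and SA-APC were bound for 40 minutes and HTRF measured.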

In order of falling “IC50 Ratio JAK2/JAK1” value:
1. N#CCC1(n2cc(-c3ncnc4[nH]ccc34)cn2)CN(C2CCN(C(=O)Nc3ccccc3OC(F)(F)F)CC2)C1 [Example 158, 4-{3-(cyanomethyl)-3-[4-(7H-pyrrolo[2,3-d]pyrimidin-4-yl)-1H-pyrazol-1-yl]azetidin-1-yl}-N-[2-(trifluoromethoxy)phenyl]piperidine-1-carboxamide]  12.0
2. N#CCC1(n2cc(-c3c(F)cnc4[nH]ccc34)cn2)CN(C2CCN(C(=O)c3cc(F)cc(C#N)c3)CC2)C1 [Example 316, 3-[(4-{3-(cyanomethyl)-3-[4-(5-fluoro-1H-pyrrolo[2,3-b]pyridin-4-yl)-1H-pyrazol-1-yl]azetidin-1-yl}piperidin-1-yl)carbonyl]-5-fluorobenzonitrile]  9.5
3. N#CCC1(n2ccc(-c3ncnc4[nH]ccc34)c2)CN(C2CCN(C(=O)Nc3ncccc3F)CC2)C1 [Example 292, 4-{3-(cyanomethyl)-3-[3-(7H-pyrrolo[2,3-d]pyrimidin-4-yl)-1H-pyrrol-1-yl]azetidin-1-yl}-N-(3-fluoropyridin-2-yl)piperidine-1-carboxamide]  9.1
4. N#CCC1(n2cc(-c3ncnc4[nH]ccc34)cn2)CN(C2CCN(C(=O)c3cc(F)c(F)c(F)c3F)CC2)C1 [Example 54, {3-[4-(7H-pyrrolo[2,3-d]pyrimidin-4-yl)-1H-pyrazol-1-yl]-1-[1-(2,3,4,5-tetrafluorobenzoyl)piperidin-4-yl]azetidin-3-yl}acetonitrile]  9.1
5. N#CCC1(n2cc(-c3ccnc4[nH]ccc34)cn2)CN(C2CCN(C(=O)Nc3ccncc3C(F)(F)F)CC2)C1 [Example 307, 4-{3-(cyanomethyl)-3-[4-(1H-pyrrolo[2,3-b]pyridin-4-yl)-1H-pyrazol-1-yl]azetidin-1-yl}-N-[3-(trifluoromethyl)pyridin-4-yl]piperidine-1-carboxamide]  8.8
6. N#CCC1(n2cc(-c3ncnc4[nH]ccc34)cn2)CN(C2CCN(C(=O)Nc3cccc(Cl)c3F)CC2)C1 [Example 177, N-(3-chloro-2-fluorophenyl)-4-{3-(cyanomethyl)-3-[4-(7H-pyrrolo[2,3-d]pyrimidin-4-yl)-1H-pyrazol-1-yl]azetidin-1-yl}piperidine-1-carboxamide]  8.5
7. N#CCC1(n2ccc(-c3ncnc4[nH]ccc34)c2)CN(C2CCN(C(=O)c3cccc(C#N)c3)CC2)C1 [Example 262, 3-[(4-{3-(cyanomethyl)-3-[3-(7H-pyrrolo[2,3-d]pyrimidin-4-yl)-1H-pyrrol-1-yl]azetidin-1-yl}piperidin-1-yl)carbonyl]benzonitrile]  7.4
8. N#CCC1(n2cc(-c3ncnc4[nH]ccc34)cn2)CN(C2CCN(C(=O)OCc3ccc(F)cc3F)CC2)C1 [Example 393, 2,4-difluorobenzyl 4-{3-(cyanomethyl)-3-[4-(7H-pyrrolo[2,3-d]pyrimidin-4-yl)-1H-pyrazol-1-yl]azetidin-1-yl}piperidine-1-carboxylate]  7.1
9. N#CCC1(n2cc(-c3ncnc4[nH]ccc34)cn2)CN(C2CCN(C(=O)Nc3cc(F)ccc3F)CC2)C1 [Example 174, 4-{3-(cyanomethyl)-3-[4-(7H-pyrrolo[2,3-d]pyrimidin-4-yl)-1H-pyrazol-1-yl]azetidin-1-yl}-N-(2,5-difluorophenyl) piperidine-1-carboxamide]  7.1
10. N#CCC1(n2ccc(-c3ncnc4[nH]ccc34)c2)CN(C2CCN(C(=O)c3ccc(C(F)(F)F)c(F)c3)CC2)C1 [Example 267, {1-{1-[3-fluoro-4-(trifluoromethyl)benzoyl]piperidin-4-yl}-3-[3-(7H-pyrrolo[2,3-d]pyrimidin-4-yl)-1H-pyrrol-1-yl]azetidin-3-yl}acetonitrile]  6.6
11. N#CCC1(n2ccc(-c3ncnc4[nH]ccc34)c2)CN(C2CCN(C(=O)c3cc(F)ccc3C(F)(F)F)CC2)C1 [Example 266, {1-{1-[5-fluoro-2-(trifluoromethyl)benzoyl]piperidin-4-yl}-3-[3-(7H-pyrrolo[2,3-d]pyrimidin-4-yl)-1H-pyrrol-1-yl]azetidin-3-yl}acetonitrile]  6.6
12. N#CCC1(n2cc(-c3ncnc4[nH]ccc34)cn2)CN(C2CCN(Cc3ccc(C#N)c(F)c3)CC2)C1 [Example 229, 4-[(4-{3-(cyanomethyl)-3-[4-(7H-pyrrolo[2,3-d]pyrimidin-4-yl)-1H-pyrazol-1-yl]azetidin-1-yl}piperidin-1-yl)methyl]-2-fluorobenzonitrile]  6.4
13. N#CCC1(n2cc(-c3c(C#N)cnc4[nH]ccc34)cn2)CN(C2CCN(C(=O)c3cc(C#N)ccc3C#N)CC2)C1 [Example 337, 2-[(4-{3-(cyanomethyl)-3-[4-(5-cyano-1H-pyrrolo[2,3-b]pyridin-4-yl)-1H-pyrazol-1-yl]azetidin-1-yl}piperidin-1-yl)carbonyl]terephthalonitrile]  6.0
14. Cn1cnc(S(=O)(=O)N2CCC(N3CC(CC#N)(n4cc(-c5ncnc6[nH]ccc56)cn4)C3)CC2)c1 [Example 258, {1-{1-[(1-methyl-1H-imidazol-4-yl)sulfonyl]piperidin-4-yl}-3-[4-(7H-pyrrolo[2,3-d]pyrimidin-4-yl)-1H-pyrazol-1-yl]azetidin-3-yl}acetonitrile]  5.0
15. N#CCC1(n2cc(-c3c(F)cnc4[nH]ccc34)cn2)CN(C2CCN(C(=O)c3ccc(O)cc3F)CC2)C1 [Example 323, {1-[1-(2-fluoro-4-hydroxybenzoyl)piperidin-4-yl]-3-[4-(5-fluoro-1H-pyrrolo[2,3-b]pyridin-4-yl)-1H-pyrazol-1-yl]azetidin-3-yl}acetonitrile]  5.0
16. COC(=O)c1ccc(NC(=O)N2CCC(N3CC(CC#N)(n4cc(-c5ncnc6[nH]ccc56)cn4)C3)CC2)c(F)c1 [Example 208, methyl 4-{[(4-{3-(cyanomethyl)-3-[4-(7H-pyrrolo[2,3-d]pyrimidin-4-yl)-1H-pyrazol-1-yl]azetidin-1-yl}piperidin-1-yl)carbonyl]amino}-3-fluorobenzoate]  4.8
17. Cc1ccc(C(=O)N2CCC(N3CC(CC#N)(n4cc(-c5ncnc6[nH]ccc56)cn4)C3)CC2)s1 [Example 80, {1-{1-[(5-methyl-2-thienyl)carbonyl]piperidin-4-yl}-3-[4-(7H-pyrrolo[2,3-d]pyrimidin-4-yl)-1H-pyrazol-1-yl]azetidin-3-yl}acetonitrile]  4.1
18. N#CCC1(n2cc(-c3ncnc4[nH]ccc34)cn2)CN(C2CCN(C(=O)Nc3cc(F)cc(F)c3)CC2)C1 [Example 175, 4-{3-(cyanomethyl)-3-[4-(7H-pyrrolo[2,3-d]pyrimidin-4-yl)-1H-pyrazol-1-yl]azetidin-1-yl}-N-(3,5-difluorophenyl) piperidine-1-carboxamide]  3.6
19. N#CCC1(n2cc(-c3ncnc4[nH]ccc34)cn2)CN(C2CCN(C(=O)c3ccsc3Br)CC2)C1 [Example 75, {1-{1-[(2-bromo-3-thienyl)carbonyl]piperidin-4-yl}-3-[4-(7H-pyrrolo[2,3-d]pyrimidin-4-yl)-1H-pyrazol-1-yl]azetidin-3-yl}acetonitrile]  3.4
20. COc1cc(C(=O)N2CCC(N3CC(CC#N)(n4cc(-c5ncnc6[nH]ccc56)cn4)C3)CC2)ccc1F [Example 26, {1-[1-(4-fluoro-3-methoxybenzoyl)piperidin-4-yl]-3-[4-(7H-pyrrolo[2,3-d]pyrimidin-4-yl)-1H-pyrazol-1-yl]azetidin-3-yl}acetonitrile]  3.3
21. N#CCC1(n2cc(-c3ncnc4[nH]ccc34)cn2)CN(C2CCN(C(=O)Nc3nc(-c4ccc(Cl)cc4)cs3)CC2)C1 [Example 195, N-[4-(4-chlorophenyl)-1,3-thiazol-2-yl]-4-{3-(cyanomethyl)-3-[4-(7H-pyrrolo[2,3-d]pyrimidin-4-yl)-1H-pyrazol-1-yl]azetidin-1-yl}piperidine-1-carboxamide]  3.2
22. COc1nc(CN2CCC(N3CC(CC#N)(n4cc(-c5ncnc6[nH]ccc56)cn4)C3)CC2)ccc1C#N [Example 224, 6-[(4-{3-(cyanomethyl)-3-[4-(7H-pyrrolo[2,3-d]pyrimidin-4-yl)-1H-pyrazol-1-yl]azetidin-1-yl}piperidin-1-yl)methyl]-2-methoxynicotinonitrile]  2.4
23. N#CCC1(n2cc(-c3ncnc4[nH]ccc34)cn2)CN(C2CCN(C(=O)Nc3ccc(C(F)(F)F)cc3)CC2)C1 [Example 167, 4-{3-(cyanomethyl)-3-[4-(7H-pyrrolo[2,3-d]pyrimidin-4-yl)-1H-pyrazol-1-yl]azetidin-1-yl}-N-[4-(trifluoromethyl)phenyl]piperidine-1-carboxamide]  2.0
24. N#CCC1(n2cc(-c3c(C#N)cnc4[nH]ccc34)cn2)CN(C2CCN(C(=O)c3c(F)cc(C#N)cc3F)CC2)C1 [Example 340, 4-{1-[1-[1-(4-cyano-2,6-difluorobenzoyl)piperidin-4-yl]-3-(cyanomethyl)azetidin-3-yl]-1H-pyrazol-4-yl}-1H-pyrrolo[2,3-b]pyridine-5-carbonitrile]  1.4
25. N#CCC1(n2cc(-c3ncnc4[nH]ccc34)cn2)CN(C2CCN(Cc3ccc(-c4conn4)cc3)CC2)C1 [Example 221, {1-{1-[4-(1,2,3-oxadiazol-4-yl)benzyl]piperidin-4-yl}-3-[4-(7H-pyrrolo[2,3-d]pyrimidin-4-yl)-1H-pyrazol-1-yl]azetidin-3-yl}acetonitrile]  1.3
26. N#CCC1(n2cc(-c3ncnc4[nH]ccc34)cn2)CN(C2CCN(C(=O)c3cc4ccc(C(F)(F)F)cc4s3)CC2)C1 [Example 94, [3-[4-(7H-pyrrolo[2,3-d]pyrimidin-4-yl)-1H-pyrazol-1-yl]-1-(1-{[6-(trifluoromethyl)-1-benzothien-2-yl]carbonyl}piperidin-4-yl)azetidin-3-yl]acetonitrile]  1.0
27. N#CCC1(n2cc(-c3ncnc4[nH]ccc34)cn2)CN(C2CCN(Cc3cc4ccccc4o3)CC2)C1 [Example 232, {1-[1-(1-benzofuran-2-ylmethyl)piperidin-4-yl]-3-[4-(7H-pyrrolo[2,3-d]pyrimidin-4-yl)-1H-pyrazol-1-yl]azetidin-3-yl}acetonitrile]  0.7
